In patent US20250289804A1, “SUBSTITUTED INDOLE COMPOUNDS AND METHODS OF USE THEREOF” (NOVARTIS PHARMA AG, priority 2021, published 2025):

Assays:
[1] = target: human C3bBb (Homo sapiens (Human), UniProt P00751); experiment: Human C3bBb enzyme assay (C3a generation from C3, ELISA); type: biochemical; settings: starred values: assay conducted with 1 nM C3b:Bb enzyme; read-out: Human C3b:Bb IC50 Avg
Procedure: Compounds disclosed herein were evaluated for their potency to inhibit human C3bBb in a biochemical assay. To generate active C3bBb complex in vitro, purified human C3b (Complement Technology, A114), CFB (Complement Technology, A135) and CFD (Complement Technology, A136) were mixed in a 1:1:1 ratio to a final concentration of 1 μM each in the C3bBb assay buffer (PBS pH 7.4, 100 μM NiCl2, 0.05% (w/v) CHAPS). The reaction mix was incubated at room temperature for 30 minutes on a rotating platform. […] On the day of the enzyme assay, a reaction mixture containing 3 nM C3bBb complex and 1 μM purified human C3 (Complement Technology, A113) was prepared in the C3bBb assay buffer. Compounds were serial diluted 3-fold in 100% DMSO for a 10-point dose-response curve. A 0.5 μL aliquot of diluted compound solution was transferred to a conical bottom 96-well plate, before 49.5 μL of the reaction mix was added to each well to initiate the reaction. The plate was incubated for 1 hour at room temperature. […] The generation of C3a from C3 by the C3bBb complex was measured using the MicroVue C3a Plus EIA ELISA kit (Quidel, A031). The concentration of C3a from each well was calculated using a standard curve. Percent inhibition values were generated using the baseline (C3 only) and the maximum control (DMSO instead of compound), and IC50 of each compound was calculated using 4-parameter logistic regression.

[2] = system: MAC formation in normal human serum; experiment: Human serum MAC formation assay (zymosan-coated plates, 50% normal human serum); settings: 50% normal human serum with EGTA, 37° C. 30 minutes
Procedure: MAC deposition assay using normal human serum was applied to evaluate compound potency under physiologically relevant conditions. Black Maxisorp plates (Thermo Fisher, 437111) were coated with preactivated zymosan (Complement Technology, B400) at 0.5 mg/mL in carbonate buffer (pH 9.5, Sigma, C3041) at room temperature overnight. Compounds were serial diluted 3-fold in 100% DMSO for a 10-point dose-response curve. Normal human serum (Complement Technology, NHS) was diluted to 50% (v/v) with the gelatin buffer (4.2 mM HEPES pH 7.4, 0.15 mM CaCl2, 141 mM NaCl, 4.5 mM MgCl2, 0.1% gelatin) containing 20 mM EGTA or 20 mM EDTA. In conical bottom 96-well plates, 1 μL compound and 99 μL of serum-EGTA were mixed. Serum-EDTA was used as baseline control. The serum-compound mixture was incubated at room temperature for 15 minutes before being transferred to the washed zymosan plate for complement activation at 37° C. for 30 minutes. The reaction was terminated by decanting the reaction mixture and adding blocking buffer (Thermo Fisher, 37539) for 20 minutes. MAC formation on the ELISA plate was detected using 0.2 μg/mL mouse anti-human C9 neoepitope monoclonal antibody (Thermo Fisher, MA5-33373) diluted in phosphate-buffered saline with 0.05% Tween-20 (PBST). A goat anti-mouse IgG-HRP antibody (Thermo Fisher, A16072) was used at 1:2000 in PBST as secondary antibody. After washing, the reaction was developed using QuantaBlu (Thermo Fisher, 15169) for 20 minutes at room temperature. The plates were read at 325 nm excitation and 420 nm emission wavelengths. Percent inhibition values were generated using the baseline (EDTA-serum) and the maximum control (EGTA-serum). An IC50 for each compound was calculated using 4-parameter logistic regression.

Sequence of human C3bBb (P00751 260-764): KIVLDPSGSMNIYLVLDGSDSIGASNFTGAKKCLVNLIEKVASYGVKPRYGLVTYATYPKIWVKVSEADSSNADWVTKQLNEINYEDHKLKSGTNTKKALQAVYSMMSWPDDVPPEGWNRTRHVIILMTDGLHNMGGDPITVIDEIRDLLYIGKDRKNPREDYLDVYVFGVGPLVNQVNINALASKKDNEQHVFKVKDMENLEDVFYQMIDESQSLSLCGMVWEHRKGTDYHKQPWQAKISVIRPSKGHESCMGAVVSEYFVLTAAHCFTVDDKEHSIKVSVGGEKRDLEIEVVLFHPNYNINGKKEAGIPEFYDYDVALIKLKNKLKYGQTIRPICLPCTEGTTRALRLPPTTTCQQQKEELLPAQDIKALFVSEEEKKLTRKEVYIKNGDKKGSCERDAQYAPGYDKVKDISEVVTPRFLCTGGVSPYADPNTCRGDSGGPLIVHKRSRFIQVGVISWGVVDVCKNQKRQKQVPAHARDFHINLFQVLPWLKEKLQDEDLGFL
Sequence of human C3bBb (P01024 23-667 partner): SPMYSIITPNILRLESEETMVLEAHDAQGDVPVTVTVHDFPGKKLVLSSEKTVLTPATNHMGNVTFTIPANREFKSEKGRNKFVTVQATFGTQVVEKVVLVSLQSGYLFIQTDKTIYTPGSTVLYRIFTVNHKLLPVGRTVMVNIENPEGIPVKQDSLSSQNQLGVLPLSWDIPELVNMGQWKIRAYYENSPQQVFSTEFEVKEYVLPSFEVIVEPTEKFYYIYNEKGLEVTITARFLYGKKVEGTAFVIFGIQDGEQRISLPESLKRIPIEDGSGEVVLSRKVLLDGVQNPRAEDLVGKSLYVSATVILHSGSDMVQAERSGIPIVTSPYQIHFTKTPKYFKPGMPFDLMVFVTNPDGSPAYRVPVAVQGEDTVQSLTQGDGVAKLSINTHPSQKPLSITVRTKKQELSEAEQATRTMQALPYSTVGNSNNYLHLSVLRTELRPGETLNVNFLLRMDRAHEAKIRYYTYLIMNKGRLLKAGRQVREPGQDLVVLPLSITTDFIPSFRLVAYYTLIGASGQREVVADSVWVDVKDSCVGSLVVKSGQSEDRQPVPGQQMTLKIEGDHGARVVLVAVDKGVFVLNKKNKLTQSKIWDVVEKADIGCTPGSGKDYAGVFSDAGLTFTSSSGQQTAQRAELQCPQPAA
Sequence of human C3bBb (P01024 749-1663 partner): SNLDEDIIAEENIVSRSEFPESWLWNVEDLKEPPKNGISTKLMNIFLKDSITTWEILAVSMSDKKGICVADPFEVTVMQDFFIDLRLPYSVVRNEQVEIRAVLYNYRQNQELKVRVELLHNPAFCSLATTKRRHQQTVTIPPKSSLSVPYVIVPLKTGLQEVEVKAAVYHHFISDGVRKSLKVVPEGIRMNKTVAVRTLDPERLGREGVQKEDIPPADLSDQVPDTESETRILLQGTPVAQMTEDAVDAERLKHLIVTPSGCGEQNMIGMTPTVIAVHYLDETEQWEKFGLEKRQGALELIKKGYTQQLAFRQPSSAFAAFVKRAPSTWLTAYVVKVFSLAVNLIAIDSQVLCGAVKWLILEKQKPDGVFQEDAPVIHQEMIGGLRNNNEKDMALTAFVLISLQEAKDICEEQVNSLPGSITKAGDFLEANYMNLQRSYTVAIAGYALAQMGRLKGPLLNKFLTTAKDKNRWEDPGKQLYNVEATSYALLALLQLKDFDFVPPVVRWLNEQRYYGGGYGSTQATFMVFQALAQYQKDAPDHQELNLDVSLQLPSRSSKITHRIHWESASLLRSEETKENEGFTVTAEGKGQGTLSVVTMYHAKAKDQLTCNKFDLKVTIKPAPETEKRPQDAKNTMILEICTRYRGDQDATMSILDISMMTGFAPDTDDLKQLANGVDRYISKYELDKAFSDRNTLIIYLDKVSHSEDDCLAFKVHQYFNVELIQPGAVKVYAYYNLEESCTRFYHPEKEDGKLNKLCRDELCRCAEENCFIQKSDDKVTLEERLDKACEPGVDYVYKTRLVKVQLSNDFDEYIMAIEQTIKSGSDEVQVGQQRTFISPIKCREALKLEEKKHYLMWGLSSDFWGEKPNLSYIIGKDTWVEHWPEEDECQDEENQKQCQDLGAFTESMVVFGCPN

SMILES	IC50 [1]	IC50 [2]
COc1cc(C)c2[nH]ccc2c1CN1CC[C@]2(CCC(F)(F)C2)C[C@H]1c1ccc(C(=O)O)cc1 (single isomer, unassigned) [Example 35, 4-(5R,7S)-(2,2-difluoro-8-((5-methoxy-7-methyl-1H-indol-4-yl)methyl)-8-azaspiro[4.5]decan-7-yl)benzoic acid or 4-(5S,7S)-(2,2-difluoro-8-((5-methoxy-7-methyl-1H-indol-4-yl)methyl)-8-azaspiro[4.5]decan-7-yl)benzoic acid]	< 10 nM	< 100 nM
COc1cc(C)c2[nH]ccc2c1CN1CC[C@]2(CCC(F)(F)C2)C[C@H]1c1ccc(C(=O)O)cc1 (single isomer, unassigned) [Example 36, 4-(5R,7S)-(2,2-difluoro-8-((5-methoxy-7-methyl-1H-indol-4-yl)methyl)-8-azaspiro[4.5]decan-7-yl)benzoic acid or 4-(5S,7S)-(2,2-difluoro-8-((5-methoxy-7-methyl-1H-indol-4-yl)methyl)-8-azaspiro[4.5]decan-7-yl)benzoic acid]	< 10 nM	< 100 nM
COc1cc(C)c2[nH]ccc2c1CN1CC[C@]2(C[C@H]1c1ccc(C(=O)O)cc1)C[C@@H](C(F)F)C2 (single isomer, unassigned) [Example 46, 4-((2R,4s,6S)-2-(difluoromethyl)-7-((5-methoxy-7-methyl-1H-indol-4-yl)methyl)-7-azaspiro[3.5]nonan-6-yl)benzoic acid or 4-((2S,4r,6S)-2-(difluoromethyl)-7-((5-methoxy-7-methyl-1H-indol-4-yl)methyl)-7-azaspiro[3.5]nonan-6-yl)benzoic acid]	< 10 nM	100 to 200 nM
COc1cc(C)c2[nH]ccc2c1CN1CC[C@]2(C[C@H]1c1ccc(C(=O)O)cc1)C[C@@H](C(F)F)C2 (single isomer, unassigned) [Example 47, 4-((2R,4s,6S)-2-(difluoromethyl)-7-((5-methoxy-7-methyl-1H-indol-4-yl)methyl)-7-azaspiro[3.5]nonan-6-yl)benzoic acid or 4-((2S,4r,6S)-2-(difluoromethyl)-7-((5-methoxy-7-methyl-1H-indol-4-yl)methyl)-7-azaspiro[3.5]nonan-6-yl)benzoic acid]	< 10 nM	< 100 nM
COc1cc(C)c2[nH]ccc2c1CN1CC[C@]2(C[C@H]1c1ccc(C(=O)O)cc1)C[C@@H](C(F)(F)F)C2 (single isomer, unassigned) [Example 48, 4-((2R,4s,6S)-7-((5-methoxy-7-methyl-1H-indol-4-yl)methyl)-2-(trifluoromethyl)-7-azaspiro[3.5]nonan-6-yl)benzoic acid or 4-((2S,4r,6S)-7-((5-methoxy-7-methyl-1H-indol-4-yl)methyl)-2-(trifluoromethyl)-7-azaspiro[3.5]nonan-6-yl)benzoic acid]	< 10 nM	< 100 nM
COc1cc(C)c2[nH]ccc2c1CN1CC[C@]2(C[C@H]1c1ccc(C(=O)O)cc1)C[C@@H](C(F)(F)F)C2 (single isomer, unassigned) [Example 49, 4-((2R,4s,6S)-7-((5-methoxy-7-methyl-1H-indol-4-yl)methyl)-2-(trifluoromethyl)-7-azaspiro[3.5]nonan-6-yl)benzoic acid or 4-((2S,4r,6S)-7-((5-methoxy-7-methyl-1H-indol-4-yl)methyl)-2-(trifluoromethyl)-7-azaspiro[3.5]nonan-6-yl)benzoic acid]	< 10 nM	< 100 nM
COc1cc(C)c2[nH]ccc2c1CN1CC[C@]2(C[C@H]1c1ccc(C(=O)O)cc1)C[C@@H](C#N)C2 (single isomer, unassigned) [Example 52, 4-((2R,4s,6S)-2-cyano-7-((5-methoxy-7-methyl-1H-indol-4-yl)methyl)-7-azaspiro[3.5]nonan-6-yl)benzoic acid or 4-((2S,4r,6S)-2-cyano-7-((5-methoxy-7-methyl-1H-indol-4-yl)methyl)-7-azaspiro[3.5]nonan-6-yl)benzoic acid]	< 10 nM	< 100 nM
